Assay results published in BindingDB's records for doi:10.1016/j.bmcl.2006.10.059 (Merck Research Laboratories, 2007).

test: Inhibition of MCP1-stimulated chemotaxis in monocytes transfected with human CCR2

Row | IC50 [nM] | Compound
1 | 1.8 | CNC(=O)Nc1nc([C@H](CCN2CCC(c3ccccc3)CC2)C(=O)NCc2cc(C(F)(F)F)cc(C(F)(F)F)c2)cs1 [(S)-1-(4-(1-(3,5-bis(trifluoromethyl)benzylamino)-1-oxo-4-(4-phenylpiperidin-1-yl)butan-2-yl)thiazol-2-yl)-3-methylurea]
2 | 27 | CC(=O)Nc1nc([C@@H](CCN2CCC3(C=Cc4ccccc43)CC2)C(=O)NCc2cc(C(F)(F)F)cc(C(F)(F)F)c2)cs1 [(2R)-N-{[3,5-bis(trifluoromethyl)phenyl]methyl}-2-(2-acetamido-1,3-thiazol-4-yl)-4-{spiro[indene-1,4'-piperidine]-1'-yl}butanamide]
3 | 87 | CNC(=O)Nc1nc([C@@H](CCN2CCC(c3ccccc3)CC2)C(=O)NCc2cc(C(F)(F)F)cc(C(F)(F)F)c2)cs1 [(R)-1-(4-(1-(3,5-bis(trifluoromethyl)benzylamino)-1-oxo-4-(4-phenylpiperidin-1-yl)butan-2-yl)thiazol-2-yl)-3-methylurea]
4 | 0.7 | CC(=O)Nc1nc(C(CCN2CCC3(C=Cc4ccccc43)CC2)C(=O)NCc2cc(C(F)(F)F)cc(C(F)(F)F)c2)cs1 (configuration not stated) [N-{[3,5-bis(trifluoromethyl)phenyl]methyl}-2-(2-acetamido-1,3-thiazol-4-yl)-4-{spiro[indene-1,4'-piperidine]-1'-yl}butanamide]
5 | 5.3 | CC(=O)Nc1nc([C@H](CCN2CCC3(C=Cc4ccccc43)CC2)C(=O)NCc2cc(C(F)(F)F)cc(C(F)(F)F)c2)cs1 [(2S)-N-{[3,5-bis(trifluoromethyl)phenyl]methyl}-2-(2-acetamido-1,3-thiazol-4-yl)-4-{spiro[indene-1,4'-piperidine]-1'-yl}butanamide]
6 | 0.7 | CC(=O)Nc1nc([C@H](CCN2CCC(c3ccccc3)CC2)C(=O)NCc2cc(C(F)(F)F)cc(C(F)(F)F)c2)cs1 [(S)-N-(3,5-bis(trifluoromethyl)benzyl)-2-(2-acetamidothiazol-4-yl)-4-(4-phenylpiperidin-1-yl)butanamide]

Row | Compound | IC50 [nM]
7 | CC(=O)Nc1nc(C(CCN2CCC3(C=Cc4ccccc43)[C@@H](C)C2)C(=O)NCc2cc(C(F)(F)F)cc(C(F)(F)F)c2)cs1 (stereo partly drawn) [N-{[3,5-bis(trifluoromethyl)phenyl]methyl}-2-(2-acetamido-1,3-thiazol-4-yl)-4-[(5'R)-5'-methylspiro[indene-1,4'-piperidine]-1'-yl]butanamide] | 0.6
